The results in this text go back to patent US8680113B2, “BMI-1 protein expression modulators” (PTC Therapeutics, Inc., priority 2008, dated 2014).

Test [1] has as its system Bmi-1. The test is described as follows: Cell Model Assay: Bmi-1 expression in T98G. It is filed as cell-based. The conditions noted are these: T98G (glioblastoma). The protocol:
(§1) Using assay conditions known to those skilled in the art, the ability of the compounds described herein to reduce Bmi-1 expression in HT1080 (fibrosarcoma), U87-MG (glioblastoma), T98G (glioblastoma), K562 (chronic myelogenous leukemia) and KG1 (acute myelogenous leukemia) cell lines was tested (at test compound concentrations calculated from the ELISA assay data shown in Example 1) compared to puromycin as a control to provide the EC50 values shown in Table 2. The term “ND” means that data was not determined.

In test [2] the test system is Bmi-1. The test is described as follows: Cell Model Assay: Bmi-1 expression in HT1080. The conditions noted are these: HT1080 (fibrosarcoma). Type of test: cell-based, human. How it is done:
as §1

The subject of test [3] is Bmi-1. Kind of test: Cell Model Assay: Bmi-1 expression in U87-MG. Type of test: cell-based. As to conditions: U87-MG (glioblastoma). The protocol:
as §1

The subject of test [4] is Bmi-1. Kind of test: Cell Model Assay: Bmi-1 expression in K562. It is filed as cell-based. The conditions noted are these: K562 (chronic myelogenous leukemia). How it is done:
as §1

Test [5] has as its system Bmi-1. Kind of test: Cell Model Assay: Bmi-1 expression in KG1. Type of test: cell-based. As to conditions: KG1 (acute myelogenous leukemia). The protocol:
as §1

For test [6], the system named is Bmi-1. Kind of test: Sandwich ELISA Assay (Bmi-1 ELISA in HT-1080 cells). It is filed as cell-based, human. Summed up:
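Lysate Bmi-1 was quantified against a recombinant GST-Bmi-1 standard (0-8000 pg/mL) by sandwich ELISA read at OD450 with OD570 reference. The ELISA used mouse monoclonal capture, rabbit anti-Bmi-1, HRP anti-rabbit IgG and TMB. Before lysis, HT-1080 cells seeded at 8000/well were exposed to compounds for 40-48 h at 37°C with 0.5% final DMSO.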
In general terms: ELISA stands for enzyme-linked immunosorbent assay.

Test [7] deals with MCL-Jeko. Kind of test: Mantle Cell Lymphoma Assay: cytotoxicity, Jeko. It is filed as cell-based. The conditions noted are these: for Cell Concentration (×10^6): MCL-Jeko, 72 hrs; for Cell Concentration, MCL-Jeko: 72 hrs in culture. The source says:
(§2) MCL cell lines Jeko, Mino, and Rec-1 were provided by American Type Culture Collection: The Bioresource Center (Manassas, Va.). […] Carlsbad, Calif.) in T-75 culture flasks. Cell concentration was maintained between 2 to 3×10^5 cells/mL. Early passage cells (passages 2-4) were used for all experiments. Ficoll-Histopaque density sedimentation (Sigma Aldrich) was used for separation of debris and purification of cell lines prior to experiments. […] The cytotoxic effect of test compounds on the MCL-cell lines was assessed by measuring cell concentration and cell viability using a Beckman Coulter Vi-Cell Counter. Controls and treated cells were harvested and counted at day 3.

Test [8] concerns MM cell line. The test is described as follows: Multiple Myeloma Assay. Type of test: cell-based. As to conditions: 72 hrs in culture.
Test [9] has as its system MCL-Rec1. Kind of test: Mantle Cell Lymphoma Assay: cytotoxicity, Rec-1. It is filed as cell-based. The conditions noted are these: for Cell Concentration (×10^6): 72 hrs; for Cell Concentration, MCL-Rec1: 72 hrs in culture.
From the text: as §2

In test [10] the test system is MCL-Mino. The test is described as follows: Mantle Cell Lymphoma Assay: cytotoxicity, Mino. Type of test: cell-based. The conditions noted are these: for Cell Concentration (×10^6): MCL-Mino, 72 hrs; for Cell Concentration, MCL-Mino: 72 hrs in culture.
From the text: as §2

For orientation: EC50 means the concentration at which the effect is half-maximal. High values mean weaker potency, low ones greater potency. In the case of `COc1ccc(C[C@H](N)C(=O)N[C@H]2[C@@H](O)[C@H](n3cnc4c(N(C)C)ncnc43)O[C@@H]2CO)cc1` [Control, puromycin, reference compound], the EC50 in test [1] is 0.23 µM; in test [2], 0.45 µM; in test [3] it was 0.42 µM; in test [4], 0.49 µM; in test [5], 1.1 µM.

For orientation: IC50 means the point on the concentration scale where inhibition reaches its midpoint. As to `Cc1nc2ncccn2c1-c1csc(Nc2ccc(N(C)C)cc2)n1` [Cpd 12, N,N-dimethyl-N′-(4-(2-methylimidazo[1,2-a]pyrimidin-3-yl)thiazol-2-yl)benzene-1,4-diamine], the EC50 was less than 0.004 µM in test [1]; 0.039 µM in test [2]; 0.11 µM in [3]; 0.01 µM in test [4]; 0.216 µM in [5]. The compound also displayed a 50% inhibitory concentration (IC50) in test [6] of less than 0.5 µM.

In test [6], `COc1cc(Br)c(Nc2nc(-c3cnc4ccc(Cl)cn34)cs2)c(Br)c1` [Cpd 24, 4-(6-chloroimidazo[1,2-a]pyridine-3-yl)-N-(2,6-dibromo-4-methoxyphenyl)thiazol-2-amine] yielded a concentration for half-maximal inhibition (IC50) of less than 0.5 µM. The EC50 in test [2] turned out to be 0.31 µM; in test [4], 0.076 µM; in [5], 0.12 µM. For the same compound, the “Cell Concentration (×10^6)” value in [7] (0.004 μM) is recorded as 1.95 ± 0.04 ×10^6; in test [7] (0.037 μM) it was 1.94 ± 0.02 ×10^6; in test [7] (0.11 μM), 1.92 ± 0.01 ×10^6; in test [7] (0.33 μM), 1.80 ± 0.03 ×10^6; in test [7] (1 μM), 0.76 ± 0.27 ×10^6; in test [7] (3 μM) it was 0.14 ± 0.01 ×10^6. In addition, the “Cell Concentration (×10^6)” value in test [9] (MCL-Rec1, 0.004 μM) is 0.36 ± 0.02 ×10^6; in [9] (MCL-Rec1, 0.037 μM) it was 0.34 ± 0.01 ×10^6; in test [9] (MCL-Rec1, 0.11 μM) it was 0.34 ± 0.01 ×10^6; in test [9] (MCL-Rec1, 0.33 μM), 0.31 ± 0.01 ×10^6; in [9] (MCL-Rec1, 1 μM), 0.06 ± 0.01 ×10^6; in test [9] (MCL-Rec1, 3 μM), 0.01 ± 0.00 ×10^6. Besides, the “Cell Concentration (×10^6)” value was 0.63 ± 0.01 ×10^6 in test [10] (0.004 μM); 0.63 ± 0.01 ×10^6 in test [10] (0.037 μM); 0.62 ± 0.01 ×10^6 in test [10] (0.11 μM); 0.55 ± 0.01 ×10^6 in test [10] (0.33 μM); 0.28 ± 0.02 ×10^6 in [10] (1 μM); 0.05 ± 0.01 ×10^6 in test [10] (3 μM). The “Cell Concentration, MM cell line” value was 1.37 ± 0.03 ×10^6 in [8] (dose 0.004 μM); 1.38 ± 0.04 ×10^6 in test [8] (dose 0.037 μM); 1.23 ± 0.01 ×10^6 in [8] (dose 0.11 μM); 0.59 ± 0.04 ×10^6 in test [8] (dose 0.33 μM); 0.34 ± 0.14 ×10^6 in test [8] (dose 1 μM); 0.17 ± 0.01 ×10^6 in [8] (dose 3 μM).

With `COc1cc(C)c(Nc2nc(-c3cnc4ccc(Cl)cn34)cs2)c(C)c1` [Cpd 27, 4-(6-chloroimidazo[1,2-a]pyridine-3-yl)-N-(4-methoxy-2,6-dimethylphenyl)thiazol-2-amine], the 50% effective concentration (EC50) was found to be 0.091 µM in [1]; 0.41 µM in test [2]; 1.2 µM in [3]; 0.055 µM in [4]; 0.128 µM in [5]. In addition, the 50% inhibitory concentration (IC50) in [6] is less than 0.5 µM. Also, the “Cell Concentration, MCL-Jeko” value in [7] (dose 0.004 μM) is recorded as 1.98 ± 0.03 ×10^6; in [7] (dose 0.037 μM), 1.99 ± 0.02 ×10^6; in test [7] (dose 0.11 μM) it was 1.96 ± 0.05 ×10^6; in [7] (dose 0.33 μM), 1.77 ± 0.02 ×10^6; in test [7] (dose 1 μM), 1.46 ± 0.02 ×10^6; in test [7] (dose 3 μM), 0.34 ± 0.04 ×10^6. Moreover, the “Cell Concentration, MM cell line” value in [8] (dose 0.004 μM) is recorded as 1.46 ± 0.01 ×10^6; in test [8] (dose 0.037 μM), 1.36 ± 0.07 ×10^6; in [8] (dose 0.11 μM) it was 1.30 ± 0.01 ×10^6; in test [8] (dose 0.33 μM), 0.80 ± 0.01 ×10^6; in test [8] (dose 1 μM), 0.17 ± 0.00 ×10^6; in [8] (dose 3 μM), 0.2 ± 0.05 ×10^6. Besides, the “Cell Concentration, MCL-Rec1” value is 1.66 ± 0.06 ×10^6 in [9] (dose 0.004 μM); 1.65 ± 0.03 ×10^6 in test [9] (dose 0.037 μM); 1.63 ± 0.04 ×10^6 in test [9] (dose 0.11 μM); 1.53 ± 0.01 ×10^6 in test [9] (dose 0.33 μM); 1.24 ± 0.03 ×10^6 in test [9] (dose 1 μM); 0.09 ± 0.01 ×10^6 in test [9] (dose 3 μM). The “Cell Concentration, MCL-Mino” value in test [10] (dose 0.004 μM) is on record as 0.62 ± 0.02 ×10^6; in test [10] (dose 0.037 μM), 0.64 ± 0.01 ×10^6; in test [10] (dose 0.11 μM), 0.59 ± 0.03 ×10^6; in test [10] (dose 0.33 μM), 0.57 ± 0.01 ×10^6; in test [10] (dose 1 μM) it was 0.41 ± 0.00 ×10^6; in test [10] (dose 3 μM), 0.09 ± 0.00 ×10^6.

For the compound `Cc1nc2ncccn2c1-c1csc(Nc2ccc(I)cc2)n1` [Cpd 39, N-(4-iodophenyl)-4-(2-methylimidazo[1,2-a]pyrimidin-3-yl)-1,3-thiazol-2-amine], the concentration giving a half-maximal response (EC50) was less than 0.004 µM in test [1], 0.005 µM in [2] and less than 0.004 µM in [3]. In addition, in test [6], the half-maximal inhibitory concentration (IC50) was less than 0.5 µM.
